Experiment [1] deals with Demodex folliculorum. The experiment in a line: In vitro killing: survival time of live adult demodex from epilated lashes in test solutions. As to conditions: for killing effect on Demodex in words (relative to TTO): in vitro; for ST: survival time of demodex: 150 = still alive (no effect). The procedure: TT shampoo was from Kato Sales, Inc. (Altamonte Springs, Fla., USA). TTO was diluted with mineral oil into different concentrations.
Under the microscope, if the epilated lash contained live demodex, different solutions were added to the coverslip edge. The movement of demodex body and legs was continuously observed for 150 minutes. The survival time (ST) (Table 2 below) was counted from the time when the solution was added to the time when the movement ceased (See FIG. 1) The average ST tested for a given solution in a number of mites was used to compare the in vitro killing effect. If demodex remained alive at the end of 150 minutes, this value was denoted as no effect. Because demodex in an earlier life stage was more vulnerable, we only tested adult demodex that had 4 pairs of well developed legs and stumpy body. Because demodex buried in cylindrical dandruff (CD) might preclude the killing effect, we only tested demodex of which the whole body was fully exposed to the test solution.

For experiment [2], the system named is Demodex folliculorum. Particulars: Norn 1970; cited from earlier work.

“And” between values parts separate entries of the source, which are not always exact repeats. Identical values can stand only once. Where only a bound is given, the exact number is not on record here.

For the compound `CC12CCC(CC1)C(C)(C)O2` [Eucalyptol], in the experiment with Demodex folliculorum [1] (concentration not given), the “Killing effect on Demodex (Time in minutes), Average” value (shortened to “Killing effect on Demodex … Average”) was 36.8 min; the “Killing effect on Demodex (Time in minutes), single mite” value (“Killing effect on Demodex … single mite” for short) was 30 min and 35 min and 40 min and 42 min. The “killing effect on Demodex in words (relative to TTO)” value (from here on “killing effect … (relative to TTO)”) in the experiment with Demodex folliculorum [1] was “not as effective as TTO”.

As to `CCOCC` [ether], the “time to kill demodex” value in the experiment on Demodex folliculorum [2] is given as “within several minutes”.

Consider xylol, for which the “time to kill demodex” value in the experiment on Demodex folliculorum [2] was “within several minutes”.

With `CC1=CCC(O)(C(C)C)CC1` (centres unmarked) [Terpinen-4-ol], in the experiment on Demodex folliculorum [1], the “killing effect … (relative to TTO)” value is listed as “active ingredient”.

In the case of `C=C(C)[C@H]1CC=C(C)C(=O)C1` [(+)-Carvone], the “Killing effect on Demodex … Average” value amounted to 22.7 min with Demodex folliculorum [1] (25%), 11.6 min in the experiment on Demodex folliculorum [1] (50%) and 4.2 min in the experiment on Demodex folliculorum [1] (100%). The “Killing effect on Demodex … single mite” value with Demodex folliculorum [1] (25%) is 25 min and 20 min and 23 min; in the experiment with Demodex folliculorum [1] (50%), 13 min and 8 min and 10 min and 11 min and 16 min; in the experiment on Demodex folliculorum [1] (100%), 4 min and 5 min and 3 min. The “killing effect … (relative to TTO)” value in the experiment with Demodex folliculorum [1] is “as effective as TTO”.

`C=C(C)[C@H]1CC=C(C)CC1` [(+)-Limonene, (R)-(+)-Limonene]: in the experiment on Demodex folliculorum [1] (97%), the “Killing effect on Demodex … Average” value was 66.8 min. For the same compound, the “killing effect … (relative to TTO)” value in the experiment on Demodex folliculorum [1] is recorded as “not as effective as TTO”.

Take `CCO` [Alc, alcohol, reference compound]: in the experiment with Demodex folliculorum [2], the “time to kill demodex” value is given as “within several minutes”. For the same compound, the “ST: survival time of demodex” value in the experiment on Demodex folliculorum [1] (75% solution) is listed as 150 min; in the experiment with Demodex folliculorum [1] (100% solution, adult mites, observed 150 min, mean±S.D.), 3.9 ± 1.2 min.

Regarding “povidone iodine [PI, reference compound]”, the “ST: survival time of demodex” value in the experiment on Demodex folliculorum [1] (10% solution, observed 150 min) came to 150 min.

For the compound `c1ccccc1` [benzene], in the experiment with Demodex folliculorum [2], the “time to kill demodex” value is recorded as “within several minutes”.

Turning to `CC[C@@H]1C(=O)OC[C@@H]1Cc1cncn1C` [Pilo, pilocarpine, reference compound], the “Killing effect on Demodex … Average” value in the experiment on Demodex folliculorum [1] (2%, 150 = no effect) is 150 min; in the experiment with Demodex folliculorum [1] (4%, 150 = no effect) it was 150 min. Besides, the “Killing effect on Demodex … single mite” value is 150 min in the experiment on Demodex folliculorum [1] (2%, 150 = no effect) and 150 min with Demodex folliculorum [1] (4%, 150 = no effect). Moreover, the “ST: survival time of demodex” value in the experiment on Demodex folliculorum [1] (4% solution) is recorded as 150 min; in the experiment on Demodex folliculorum [1] (4% solution, listed as Pilocarpine) it was greater than 150 min.
